Test results as given in patent US20250222028A1, “ENGINEERED IMMUNE CELL PLATFORM” (Cancer Research Technology Limited, priority 2022, published 2025).

Assays:
GLI1 = GLI1 expression by qRT-PCR in NK-92 cells; format: cell-based, human; details: 10 μM
Experimental: FIG. 5. L-type Cav channel agonists increase GLI1 expression in the human NK cell line NK-92 and promote specific tumour cell killing. (A) NK-92 cells were stimulated using an anti-NKp46 mAb for 4 hours in the presence of 10 μM FPL 64176, and GLI1 expression was assessed using qRT-PCR. Data is n=4 independent experiments. (B) NK-92 cells were stimulated using an anti-NKp46 mAb for 4 hours in the presence of 100 μM Bay K8644, and GLI1 expression was assessed using qRT-PCR. Data is n=3 independent experiments. (C) An LDH assay was performed to assess specific cell killing of K562 target cells at indicated effector to target ratios in the presence of 10 μM FPL 64176 (right-hand columns) or carrier control (left-hand columns). Error bars indicate SD. Data is from n=3 independent experiments.
To investigate whether L-type Cav channel agonists are also capable of enhancing GLI1 mRNA levels in the human NK cell line NK-92 (a non-Hodgkin's lymphoma cell line, expressing only Cav1.3), NK-92 cells were stimulated using an anti-NKp46 mAb (5 μg/mL) for 4 hours in the presence of either 10 μM FPL 64176 or 100 μM Bay K8644. For reference, Bay K8644 is a structural analogue of nifedipine, and acts as an L-type Cav channel agonist. GLI1 expression was assessed using qRT-PCR. […] These observations confirm that the GLI1-inducing effect of Cav agonists is not merely restricted to the compound FPL 64176. In particular, in NK cells.

CD8+ T cells = test: Flow cytometric analysis of viability, proliferation and memory subsets of CD8+ T cells; format: cell-based; details: 10 μM, 24 h
Experimental: FIG. 11. […] Naïve CD8+ T cells were stimulated with plate-bound anti-CD3/CD28 antibodies for 24 h in the presence of 10 μM FPL64176 or carrier control before flow cytometric analysis (FIG. 11A-D). (A) Quantitative analysis of live cell numbers. (B) Percentage of cells positive for the apoptotic marker Apotracker™ Green. (C) Percentage of cells positive for cell viability dye DAPI. (D) Analysis of T cell subsets based on the expression of CD44 and CD62L: CD44− CD62L+ (naïve), CD44+ CD62L+ (central memory), and CD44+ CD62L− (effector memory). (FIG. 11E-G) CTLs were restimulated on day 10 with plate-bound anti-CD3 antibody for 24 h in the presence of 10 μM FPL64176 or carrier control before flow cytometric analysis. (E) Quantitative analysis of live cell numbers. (F) Percentage of cells positive for the apoptotic marker Apotracker™ Green. (G) Percentage of cells positive for the cell viability dye DAPI. […]
To ensure that the use of L-type Cav agonist is not adversely affecting immune cells, general cell functions were assessed. […]

COC(=O)c1c(C)[nH]c(C)c1C(=O)c1ccccc1Cc1ccccc1 [FPL 64176]
GLI1 expression (GLI1; stimulated with anti-NKp46 mAb 4 hours, vs carrier control): increased | GLI1 expression (GLI1; unstimulated cells): No significant increase | memory phenotypes (CD44/CD62L subsets) (CD8+ T cells; naïve CD8+ T cells stimulated with anti-CD3/CD28): does not affect | viability or proliferation of naïve and cytotoxic CD8+ T cells (CD8+ T cells; live cell numbers, Apotracker Green, DAPI): does not impair
